Structures can show the parent of a compound that is named as a salt. Where two headings read alike, the source gives them in different places.
Target: T1, GAβ-dependent amyloid fibril formation (Human Aβ1-40 + GM1-containing liposome) (Homo sapiens, UniProt P05067)
T1 construct: Human Aβ1-40 (cat. #4307-v, prepared by Peptide Institute); purchased Peptide Institute 4307-v
Assay: Thioflavin T (ThT) assay of GAβ-dependent amyloid fibril formation (Aβ1-40 with GM1-containing liposome)
Assay type: biochemical
Summary of the method: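 Human Aβ1-40 (75 μM stock) pre-incubated 10 min at room temperature with compound (75 or 15 μM solution), then GM1-containing cholesterol/sphingomyelin liposome added and incubated 37° C, 18 hours. Fibrils quantified by ThT fluorescence (ex 430/em 490 nm, pH 8.5 glycine buffer); inhibition as ratio to compound-free control.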

[1] = inhibition rate against amyloid fibril formation, final concentration of the compound 25 μM, read-out: Inhibitory activity ABC evaluation
[2] = @25 μM, read-out: ThT Inhibitory activity (% inhibition)

T1 sequence (P05067 672-711 limits assumed): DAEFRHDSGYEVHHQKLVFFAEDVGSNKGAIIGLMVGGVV

Row | inhibition at 25 µM [1] [%] | Compound | further results
1 | 40 to 80 | O=C(N[C@@H](CO)c1nc(-c2ccc(-c3ccccc3)s2)no1)c1ccc(F)cc1 [Compound 248, 4-fluoro-N-[(1S)-2-hydroxy-1-[3-(5-phenylthiophen-2-yl)-1,2,4-oxadiazol-5-yl]ethyl]benzamide] | 
2 | 40 to 80 | O=C(N[C@@H](CO)c1nc(-c2n[nH]c3ccccc23)no1)c1ccc(F)cc1 [Compound 265, 4-fluoro-N-[(1S)-2-hydroxy-1-[3-(1H-indazol-3-yl)-1,2,4-oxadiazol-5-yl]ethyl] benzamide] | 
3 | 40 to 80 | O=C1CC(c2nc(-c3ccc(OC(F)(F)F)cc3)no2)CN1c1ccc(Cl)cc1F (centres unmarked) [Compound 28, 1-(4-chloro-2-fluorophenyl)-4-[3-{4-(trifluoromethoxy)phenyl}-1,2,4-oxadiazol-5-yl]pyrrolidin-2-one] | 
4 | 40 to 80 | COCCCNC(=O)c1ccc(-c2noc([C@H](CO)NC(=O)c3ccccc3)n2)cc1 [Compound 148, 4-[5-[(1S)-2-hydroxy-1-(phenylformamido)ethyl]-1,2,4-oxa-diazol-3-yl)-N-(3-methoxypropyl) benzamide] | 
5 | > 80 | O=C(N[C@@H](CO)c1nc(-c2ccc(C(=O)C(F)(F)F)cc2)no1)c1ccccc1 [Compound 165, N-[(1S)-2-hydroxy-1-{3-[4-(2,2,2-trifluoroacetyl)phenyl]-1,2,4-oxadiazol-5-yl}ethyl] benzamide] | 
6 | > 80 | NCC(NC(=O)c1ccc(Cl)cc1)c1nnc(-c2ccc(OC(F)(F)F)cc2)o1 (centres unmarked) [Compound 116, N-(2-amino-1-{5-[4-(trifluoromethoxy)phenyl]-1,3,4-oxadiazol-2-yl}ethyl)-4-chlorobenzamide] | 
7 | > 80 | O=C(N[C@@H](CO)c1nc(-c2ccc(C(F)(F)F)cc2)no1)c1ccc(F)nc1 [Compound 157, 6-fluoro-N-[(1S)-2-hydroxy-1-{3-[4-(trifluoromethyl)phenyl]-1,2,4-oxadiazol-5-yl}ethyl] pyridine-3-carboxamide] | 
8 | 40 to 80 | CN(C)C(=O)C[C@H](NC(=O)c1ccc(Cl)cc1)c1nc(-c2ccc(OC(F)(F)F)cc2)no1 [Compound 87, (S)-4-chloro-N-(3-(dimethylamino)-3-oxo-1-[3-{4-(trifluoromethoxy)phenyl}-1,2,4-oxadiazol-5-yl]propyl) benzamide] | 
9 | > 80 | O=C(N[C@@H](CO)c1nc(-c2ccc(OC(F)(F)F)cc2)no1)c1ccc(Cl)cc1 [Compound 39, (S)-4-chloro-N-(2-hydroxy-1-{3-[4-(trifluoromethoxy)phenyl]-1,2,4-oxadiazol-5-yl}ethyl)benzamide] | inhibition at 25 µM [2]: 98%; inhibition at 25 µM (final concentration of the compound 25 μM, ratio of ThT fluorescence intensity with/without compound, 37° C. for 18 hours, read-out: inhibition rate against amyloid fibril formation (inhibitory activity on a scale of A to C)): > 80%
10 | > 80 | O=C(N[C@@H](CO)c1nc(-c2ccc(C(F)(F)F)cc2)no1)c1ccc(OC(F)(F)F)cc1 [Compound 199, N-[(1S)-2-hydroxy-1-{3-[4-(trifluoromethyl)phenyl]-1,2,4-oxadiazol-5-yl}ethyl]-4-(trifluoromethoxy) benzamide] | 
11 | 40 to 80 | O=C(N[C@H](CO)c1nc(-c2ccc(C(F)(F)F)cc2)no1)c1ccc(Cl)cc1 [Compound 214, 4-chloro-N-[(1R)-2-hydroxy-1-{3-[4-(trifluoromethyl)phenyl]-1,2,4-oxadiazol-5-yl}ethyl]benzamide] | 
12 | 40 to 80 | O=C(c1ccc(Cl)cc1)N1CC(O)CC1c1nc(-c2ccc(OC(F)(F)F)cc2)no1 (stereo in doubt) [Compound 85, (4-chlorophenyl) ((2S,4S)-4-hydroxy-2-[3-{4-(trifluoromethoxy)phenyl}-1,2,4-oxadiazol-5-yl]pyrrolidin-1-yl)methanone] | 

Further lines, the compound ahead of its results:

Row | Compound | inhibition at 25 µM [1] [%] | further results
13 | CC(C)(NC(=O)c1ccc(Cl)cc1)c1nc(-c2ccc(OC(F)(F)F)cc2)no1 [Compound 20, 4-chloro-N-(2-[3-{4-(trifluoromethoxy)phenyl}-1,2,4-oxadiazol-5-yl]propan-2-yl)benzamide] | 40 to 80 | 
14 | COc1ccc(-c2noc(C3CC(=O)N(c4ccc(Cl)cc4)C3)n2)cc1F (centres unmarked) [Compound 42] | 40 to 80 | 
15 | O=C(N[C@@H](CO)c1nc(-c2c[nH]c3ccc(Cl)cc23)no1)c1ccc(Cl)cc1F [Compound 252, 4-chloro-N-[(1S)-1-[3-(5-chloro-1H-indol-3-yl)-1,2,4-oxadiazol-5-yl]-2-hydroxyethyl]-2-fluorobenzamide] | 40 to 80 | 
16 | OC[C@H](NC(=S)Nc1ccc(Cl)cc1)c1nc(-c2ccc(OC(F)(F)F)cc2)no1 [Compound 97, (S)-1-(4-chloro-phenyl)-3-(2-hydroxy-1-[3-{4-(trifluoromethoxy)phenyl}-1,2,4-oxadiazol-5-yl]ethyl)thiourea] | 40 to 80 | 
17 | O=C(Nc1ccc(Cl)cc1)N[C@@H](CO)c1nc(-c2ccc(OC(F)(F)F)cc2)no1 [Compound 95, (S)-1-(4-chloro-phenyl)-3-(2-hydroxy-1-[3-{4-(trifluoromethoxy)phenyl}-1,2,4-oxadiazol-5-yl]ethyl)urea] | < 40 | 
18 | O=C1CC(c2nc(-c3ccc(OC(F)(F)F)cc3)no2)CN1c1ccc(F)cc1 (stereo not drawn) [Compound 26, l-(4-fluorophenyl)-4-[3-{4-(trifluoro-methoxy)phenyl}-1,2,4-oxadiazol-5-yl]pyrrolidin-2-one] | 40 to 80 | 
19 | O=C(N[C@@H](CO)c1nc(-c2cccs2)no1)c1ccc(F)cc1 [Compound 178, 4-fluoro-N-[(1S)-2-hydroxy-1-[3-(thiophen-2-yl)-1,2,4-oxadiazol-5-yl]ethyl]benzamide] | 40 to 80 | inhibition at 25 µM [2]: 61%
20 | COc1ccc2[nH]cc(-c3noc([C@H](CO)NC(=O)c4ccc(F)cc4)n3)c2c1 [Compound 261, 4-fluoro-N-[(1S)-2-hydroxy-1-[3-(5-methoxy-1H-indol-3-yl)-1,2,4-oxadiazol-5-yl]ethyl] benzamide] | 40 to 80 | 
21 | O=C(N[C@@H](CO)c1nc(-c2cc(Cl)sc2Cl)no1)c1ccc(F)cc1 [Compound 231, N-[(1S)-1-[3-(2,5-dichlorothiophen-3-yl)-1,2,4-oxadiazol-5-yl]-2-hydroxyethyl]-4-fluorobenzamide] | 40 to 80 | 
22 | COc1ccc(CN2CC(c3nc(-c4ccc(OC(F)(F)F)cc4)no3)CC2=O)cc1 (centres unmarked) [Compound 50, 1-(4-methoxybenzyl)-4-[3-{4-(trifluoro-methoxy)phenyl}-1,2,4-oxadiazol-5-yl] pyrrolidin-2-one] | 40 to 80 | 
23 | O=C(N[C@@H](CO)c1nc(-c2ccc(O)cc2)no1)c1ccccc1 [Compound 146, N-[(1S)-2-hydroxy-1-[3-(4-hydroxy-phenyl)-1,2,4-oxadiazol-5-yl]ethyl]benzamide] | > 80 | inhibition at 25 µM [2]: 87%
24 | CS(=O)(=O)Nc1ccc(-c2nnc([C@@H](N)Cc3c[nH]c4ccccc34)o2)cc1 [Compound 111, (S)-N-(4-(5-(1-amino-2-(1H-indol-3-yl)ethyl)-1,3,4-oxadiazol-2-yl)phenyl) methane-sulfonamide hydrochloride] | < 40 | 
25 | O=C1CC(c2nc(-c3ccc(OC(F)(F)F)cc3)no2)CN1c1cncc(Cl)c1 (centres unmarked) [Compound 51, 1-(5-chloropyridin-3-yl)-4-[3-{4-(trifluoro-methoxy)phenyl}-1,2,4-oxadiazol-5-yl]pyrrolidin-2-one] | < 40 | 
26 | O=C(N[C@@H](CO)c1nc(-c2ccc(C(F)(F)F)cc2)no1)c1ccc(Cl)cc1F [Compound 236, 4-chloro-2-fluoro-N-[(1S)-2-hydroxy-1-{3-[4-(trifluoromethyl)phenyl]-1,2,4-oxadiazol-5-yl}ethyl]benzamide] | > 80 | 
27 | O=C(N[C@@H](CO)c1nc(-c2c[nH]c3cc(F)ccc23)no1)c1ccc(F)cc1 [Compound 260, 4-fluoro-N-[(1S)-1-[3-(6-fluoro-1H-indol-3-yl)-1,2,4-oxadiazol-5-yl]-2-hydroxyethyl] benzamide] | 40 to 80 | 
28 | CCN(CC)CCOc1ccc(C(=O)N[C@@H](CO)c2nc(-c3ccc(OC(F)(F)F)cc3)no2)cc1 [Compound 171, 4-[2-(diethylamino)ethoxy]-N-[(1S)-2-hydroxy-1-{3-[4-(trifluoromethoxy)phenyl]-1,2,4-oxadiazol-5-yl}ethyl] benzamide] | < 40 | 
29 | OC(Cc1c[nH]c2ccccc12)c1nc(-c2ccc(OC(F)(F)F)cc2)no1 (centres unmarked) [Compound 101, 2-(1H-indol-3-yl)-1-{3-[4-(trifluoromethoxy)phenyl]-1,2,4-oxadiazol-5-yl}ethan-1-ol] | > 80 | inhibition at 25 µM [2]: 87%
30 | O=C(N[C@@H](CO)c1nc(-c2ccc(C(F)F)cc2)no1)c1ccc(F)cc1 [Compound 166, N-[(1S)-1-{3-[4-(difluoromethyl)phenyl]-1,2,4-oxadiazol-5-yl}-2-hydroxyethyl]-4-fluorobenzamide] | 40 to 80 | 
31 | Cl.O=C(N[C@@H](CO)c1nc(-c2ccc(C(F)(F)F)cn2)no1)c1ccc(Cl)cc1 [Compound 207, 4-chloro-N-[(1S)-2-hydroxy-1-{3-[5-(trifluoromethyl)pyridin-2-yl]-1,2,4-oxadiazol-5-yl}ethyl]benzamide hydrochloride] |  | Inhibitory activity ABC evaluation (inhibition rate against amyloid fibril formation, final concentration of the compound 25 μM): A (80% or more was evaluated as A)
32 | O=C(CCc1nc(-c2ccc3c(c2)OCCO3)no1)N1CCc2ccccc2C1 [Compound 17, 3-{3-(2,3-dihydrobenzo[b][1,4]dioxin-6-yl)-1,2,4-oxadiazol-5-yl}-1-{3,4-dihydroisoquinolin-2(1H)-yl}propan-1-one] | 40 to 80 | 
33 | O=C(N[C@@H](CO)c1nc(-c2cn(CCO)c3ccccc23)no1)c1ccc(F)cc1 [Compound 264] | 40 to 80 | 
